Laboratory results taken from patent publication US12458650B2, “Urination disorder-improving agent” (ASKA Pharmaceutical Co., Ltd., priority 2019, dated 2025).

Key:
[1] = system: uterine weight associated with rat deciduoma formation; assay: Test Example 5: antiprogesterone activity, uterine weight associated with rat deciduoma formation in ovariectomized rats; type: in vivo; details: 192 h, 8 days, read-out: inhibition rate of uterine weight increase (antiprogesterone action)
Method: For the compound A and the compound D (mifepristone), the antiprogesterone activity was measured. Specifically, a sex hormone and a test substance were repeatedly administered to ovariectomized rats as a test system to examine the antiprogesterone action (antiprogesterone activity) based on, as an index, the fluctuation of the uterine weight (the inhibitory action relative to the increase of the weight) associated with rat deciduoma formation.
More specifically, rats (female, Crl:CD(SD), 5-week-old: Charles River Laboratories Japan, Inc.) were subjected to ovariectomy, and from one (1) week after the ovariectomy, a high dose estrone or 5 μg/one animal was hypodermically administered to the rats once a day for three (3) days. From the day after one day rest period, the rats received, once a day over eight (8) days, hypodermic administration of a low dose estrone (1 μg/one animal), intramuscular administration of progesterone (6 mg/kg), and oral administration of a test substance. In the middle of the administration, on Day 4 of the start of administration, the rats were subjected to a stimulation treatment of decidualization reaction to the right uterus. The day after the final administration, the uterine weight (right uterine body) was measured (n=6). Group E was subjected to ovariectomy and a stimulation treatment of decidualization reaction but was not subjected to a hormone treatment.
The test substances and the dosage in the test system (ovariectomized rats) are as follows. • Group E: rats with ovariectomy without hormone treatment • 0.5 v/v % Polysorbate 80 solution, 10 mL/kg (n=6) • Solvent group (control group): 0.5 v/v % Polysorbate 80 solution, 10 mL/kg (n=6) • Group A3: Compound A, 3 mg/kg (n=6) • Group A10: Compound A, 10 mg/kg (n=6) • Group A30: Compound A, 30 mg/kg (n=6) • Group D: Compound D (mifepristone), 3 mg/kg (n=6)

[2] = system: urination disorder model associated with diabetes; assay: Test Example 4: urination disorder model associated with streptozocin-induced diabetes (cystometry, tissue weights, blood glucose, nomogram); type: in vivo, rat; details: for Prostate, Dorsolateral prostate weight / Prostate, Ventral prostate weight: average ± SD; for Dorsolateral prostate (atrophy rate) / Seminal vesicle (atrophy rate) / Ventral prostate (atrophy rate) / Whole prostate (atrophy rate): relative to solvent group; for bladder contraction force on urination by nomogram analysis: in comparison with solvent group, FIG. 17
Method: As described below, as a urination disorder model, a urination disorder model associated with diabetes was prepared to evaluate the urination disorder. This model has no benign prostatic hyperplasia and is a model of a urination disorder associated with neuropathy and smooth muscle contraction disorder.
The body weights of rats (male, Crl:CD(SD), 5-week-old; Charles River Laboratories Japan, Inc.) were measured. After the rats were fasted overnight, the blood was collected from the caudal vein to measure the fasting blood glucose. On the basis of the body weight and the tasting blood glucose level, the rats were grouped or divided into two (2) groups by randomized, multivariable block allocation. The day after the rats were grouped, a first group received intraperitoneal administration of a citrate buffer (pH 4.5) (10 mL/kg) having a concentration of 0.1 mmol/L, and a second group received intraperitoneal administration of streptozocin (STZ; Sigma-Aldrich) (50 mg/kg). Streptozocin (STZ) was administered in the form of a solution of streptozocin having a concentration of 5 mg/mL in the citrate buffer.
About one (1) week after streptozocin (STZ) was administered, the body weight and the fasting blood glucose were measured. In the streptozocin (STZ) administration group (the second group), individuals having a fasting blood glucose level of not less than 300 mg/dL were used as animals with induced diabetes. These animals with induced diabetes are a model having no abnormality of the prostate (having no benign prostatic hyperplasia). On the basis of the body weight and the fasting blood glucose level, the animals (models) with induced diabetes were grouped or divided into three (3) groups by randomized, multivariable block allocation.
To the three model groups with induced diabetes, a 0.5 v/v % Polysorbate 80 solution (0.5% P) (10 mL/kg), the compound A (3 mg/kg), and the compound A (10 mg/kg) were orally administered, respectively, wherein the administration schedule in all groups was a frequency of once a day, only on weekdays, over four (4) weeks. Moreover, to the above-mentioned first group, a 0.5 v/v % Polysorbate 80 solution (0.5% P) (10 mL/kg) was orally administered in the same administration schedule (normal group). On the last day of administration, a cannula was inserted into and secured to the dome of the bladder under isoflurane anesthesia, and cystometry (Cystometogram, CMG) was conducted in the order of under awake condition and under urethane anesthesia to measure the intravesical pressure, the voided volume, and the residual urine volume. After the completion of the measurement, the blood was collected under deep isoflurane anesthesia, and then the prostate (ventral prostate, dorsolateral prostate), the seminal vesicle, the bladder, and the kidney were extracted and were each weighed. Moreover, the blood glucose level in the collected blood was measured.
The test substances and the dosage in the test system (rats having the urination disorder associated with diabetes) are as follows. • Normal group: citrate buffer 10 mL/kg (intraperitoneal administration), 0.5% P 10 mL/kg (oral administration) (n=10) • Solvent group (control group): STZ 50 mg/kg (intraperitoneal administration), 0.5% P 10 mL/kg (oral administration) (n=10) • Group A3: STZ 50 mg/kg (intraperitoneal administration), Compound A 3 mg/kg (oral administration) (n=10) • Group A10: STZ 50 mg/kg (intraperitoneal administration), Compound A 10 mg/kg (oral administration) (n=9) Urination Parameter:
The resulting data of the intravesical pressure, the voided volume, and the residual urine volume were analyzed, and the bladder capacity (mL), the residual urine volume (mL), and the urination efficiency (%) were determined as urination parameters in each urination. With respect to these urination parameters, the average value of two measurements was calculated and was taken as a measured value of each individual. […]

[3] = Group A3: 3 mg/kg oral, 4 weeks
[4] = Group A10: 10 mg/kg oral, 4 weeks

CC(=O)O[C@]1(C(C)=O)C[C@@H](O)[C@H]2[C@@H]3C=C(Cl)C4=CC(=O)OC[C@]4(C)[C@H]3CC[C@@]21C [Compound A, 17α-acetoxy-6-chloro-15β-hydroxy-2-oxa-4,6-pregnadiene-3,20-dione]
inhibition at 3 mg/kg ([1]; Group A3: 3 mg/kg oral once a day, not significant): 15% | inhibition at 10 mg/kg ([1]; Group A10: 10 mg/kg oral once a day, significant): 63% | inhibition at 30 mg/kg ([1]; Group A30: 30 mg/kg oral once a day, significant): 83.3% | Prostate, Dorsolateral prostate weight [2, 3]: 35.3 ± 7.8 mg/100 g body weight | Prostate, Ventral prostate weight ([2]; Group A3: 3 mg/kg oral, 4 weeks, male STZ rats): 62.2 ± 11.4 mg/100 g body weight | Dorsolateral prostate (atrophy rate) [2, 3]: (44.2%) | Seminal vesicle (atrophy rate) [2, 3]: (41.8%) | Ventral prostate (atrophy rate) [2, 3]: (43.0%) | Whole prostate (atrophy rate) [2, 3]: (43.4%) | urination efficiency ([2]; Group A3: 3 mg/kg, cystometry under anesthesia, FIG. 16): improved | bladder contraction force on urination by nomogram analysis ([2]; Group A3: 3 mg/kg, cystometry under anesthesia): strong bladder contraction force | residual urine volume ([2]; Group A3: 3 mg/kg, cystometry under anesthesia, vs solvent group, FIG. 15): significantly decreased | bladder capacity ([2]; Group A3: 3 mg/kg, cystometry under awake condition, vs solvent group, FIG. 11): significantly reduced | residual urine volume ([2]; Group A3: 3 mg/kg, cystometry under awake condition, vs solvent group, FIG. 12): significantly reduced | urination efficiency ([2]; Group A3: 3 mg/kg, cystometry under awake condition, vs solvent group, FIG. 13): improved | therapeutic effect on diabetes (blood glucose level relative to the solvent group) ([2]; Group A3 and Group A10: 3 and 10 mg/kg oral, 4 weeks): no therapeutic effect on diabetes | Prostate, Dorsolateral prostate weight [2, 4]: 28.8 ± 6.1 mg/100 g body weight | Prostate, Ventral prostate weight [2, 4]: 53.1 ± 13.5 mg/100 g body weight | Dorsolateral prostate (atrophy rate) [2, 4]: (54.5%) | Seminal vesicle (atrophy rate) [2, 4]: (50.2%) | Ventral prostate (atrophy rate) [2, 4]: (51.3%) | Whole prostate (atrophy rate) [2, 4]: (52.5%) | urination efficiency ([2]; Group A10: 10 mg/kg, cystometry under anesthesia, FIG. 16): improved | bladder capacity ([2]; Group A10: 10 mg/kg, cystometry under anesthesia, P=0.0336, FIG. 14): reduced | bladder contraction force on urination by nomogram analysis ([2]; Group A10: 10 mg/kg, cystometry under anesthesia): strong bladder contraction force | residual urine volume ([2]; Group A10: 10 mg/kg, cystometry under anesthesia, vs solvent group, FIG. 15): significantly decreased | bladder capacity ([2]; Group A10: 10 mg/kg, cystometry under awake condition, vs solvent group, FIG. 11): significantly reduced | residual urine volume ([2]; Group A10: 10 mg/kg, cystometry under awake condition, vs solvent group, FIG. 12): significantly reduced | urination efficiency ([2]; Group A10: 10 mg/kg, cystometry under awake condition, vs solvent group, P=0.0359, FIG. 13): significantly improved
